This is an account of results in ChEMBL document CHEMBL4680247, “Design, synthesis, and biological evaluation of 3-amino-2-oxazolidinone derivatives as potent quorum-sensing inhibitors of Pseudomonas aeruginosa PAO1” (Eur J Med Chem, 2020).

As a reminder, the inhibition is the share of the control response that was lost under treatment. Broadly, the IC50 is the point on the concentration scale where inhibition reaches its midpoint.

In test [1] the test system is Chromobacterium violaceum. In words: Antibacterial activity against Chromobacterium violaceum CV026 mini-Tn5 mutant. Type of test: functional, organism-based.
Test [2] deals with Chromobacterium violaceum. In words: Inhibition of quorum sensing in Chromobacterium violaceum CV026 mini-Tn5 mutant at 2.5 to […] after 12 hrs in presence of C6-HSL.
A short description of test [3]: Inhibition of quorum sensing in Chromobacterium violaceum CV026 mini-Tn5 mutant after 12 hrs in presence of C6-HSL.
Test [4] concerns Pseudomonas aeruginosa. Kind of test: Antibacterial activity against Pseudomonas aeruginosa PAO1 biofilm cells assessed as reduction in bacterial growth after 2 days by resazurin dye based assay. The following applies: PAO1, 48 h.
The test system of test [5] is Pseudomonas aeruginosa. Kind of test: Antibacterial activity against Pseudomonas aeruginosa PAO1 planktonic cells assessed as reduction in bacterial growth after 18 hrs by resazurin dye based assay. The following applies: PAO1, 18 h. (Alamar Blue is a resazurin reagent that responds to reducing activity.)
Test [6] has as its system Pseudomonas aeruginosa. Kind of test: Antibacterial activity against Pseudomonas aeruginosa PAO1 infected in Caenorhabditis elegans N2 strain assessed as reduction in bacterial growth at 0.25 ug/ml after 120 hrs. Type of test: functional, organism-based. The following applies: dose 0.25 µg/ml.
Test [7] has as its system Pseudomonas aeruginosa. In words: Ratio of MIC for antibacterial activity against Pseudomonas aeruginosa PAO1 biofilm cells to antibacterial activity against Pseudomonas aeruginosa PAO1 planktonic cells. Type of test: functional.
Test [8] relates to Pseudomonas aeruginosa. In words: Antibacterial activity against Pseudomonas aeruginosa PAO1 infected in Caenorhabditis elegans N2 strain assessed as increase in Caenorhabditis elegans survival rate at 0.25 ug/ml after 120 hrs relative to control. It is filed as functional. The settings on record: dose 0.25 µg/ml.
Test [9] has as its system Pseudomonas aeruginosa. Kind of test: Antibacterial activity against Pseudomonas aeruginosa PAO1 infected in Caenorhabditis elegans N2 strain assessed as increase in Caenorhabditis elegans survival rate at 0.25 ug/ml up to 240 hrs relative to control. It is filed as functional. The following applies: dose 0.25 µg/ml; time hrs <=240.
The test system of test [10] is Pseudomonas aeruginosa. Kind of test: Synergistic antibacterial activity against Pseudomonas aeruginosa PAO1 biofilm cells assessed as FICI in presence of MPEM by checker board assay. It is filed as functional.
Test [11] deals with Pseudomonas aeruginosa. In words: Antibacterial activity against Pseudomonas aeruginosa ATCC 27853 biofilm cells assessed as reduction in bacterial growth after 2 days by resazurin dye based assay. It is filed as functional. The settings on record: ATCC 27853, 48 h, time 2 day.
In test [12] the test system is Pseudomonas aeruginosa. In words: Antibacterial activity against Pseudomonas aeruginosa ATCC 27853 planktonic cells assessed as reduction in bacterial growth after 18 hrs by resazurin dye based assay. It is filed as functional.
For test [13], the system named is Pseudomonas aeruginosa PAO1. In words: Inhibition of quorum sensing RhlAB in Pseudomonas aeruginosa PAO1 assessed as reduction in rhamnolipid level at 162.5 uM after 48 hrs by sulfuric acid-orcinol method relative to control.
Test [14] has as its system Pseudomonas aeruginosa. Kind of test: Antibacterial activity against Pseudomonas aeruginosa PAO1 biofilm cells assessed as reduction in microbial growth at 10 uM after 6 days in presence of MPEM. It is filed as functional, organism-based. The settings on record: time 6.0 day.
In test [15] the test system is Pseudomonas aeruginosa. Kind of test: Antibacterial activity against Pseudomonas aeruginosa PAO1 infected in Caenorhabditis elegans N2 strain assessed as reduction in bacterial growth at 162.5 uM after 120 hrs. It is filed as functional, organism-based.
In test [16] the test system is Pseudomonas aeruginosa PAO1. Kind of test: Inhibition of quorum sensing lasB in Pseudomonas aeruginosa PAO1 assessed as reduction in elastase level at 162.5 uM after 16 hrs by elastin Congo red method relative to control.
Test [17] relates to Pseudomonas aeruginosa PAO1. In words: Inhibition of quorum sensing lasB in Pseudomonas aeruginosa PAO1 assessed as reduction in elastase level at 20 to 162.5 uM after 16 hrs by elastin Congo red method. The following applies: dose 20-162.5 µM.
Test [18] deals with Pseudomonas aeruginosa PAO1. In words: Inhibition of quorum sensing las in Pseudomonas aeruginosa PAO1 assessed as reduction in protease level at 162.5 uM after 16 hrs.
Test [19] concerns Pseudomonas aeruginosa PAO1. Kind of test: Inhibition of quorum sensing Rhl/PQS in Pseudomonas aeruginosa PAO1 assessed as reduction in pyocyanin level at 20 to 162.5 uM after 16 hrs. The settings on record: dose 20-162.5 µM.
Test [20] has as its system Pseudomonas aeruginosa. In words: Antibacterial activity against Pseudomonas aeruginosa PAO1 biofilm cells assessed as reduction in microbial growth under sonication at 0.25 ug/ml after 6 days. It is filed as functional, organism-based. The settings on record: dose 0.25 µg/ml, time 6.0 day.
The subject of test [21] is Pseudomonas aeruginosa. Kind of test: Inhibition of biofilm formation in Pseudomonas aeruginosa PAO1after 20 hrs by crystal violet assay. It is filed as functional, organism-based. The settings on record: PAO1, dose 10-325 µM.
In test [22] the test system is Pseudomonas aeruginosa. Kind of test: Synergistic antibacterial activity against Pseudomonas aeruginosa PAO1 biofilm cells assessed as fold change in MPEM MIC by checker board assay. Type of test: functional.
Test [23] concerns Pseudomonas aeruginosa PAO1. Kind of test: Inhibition of quorum sensing Rhl/PQS in Pseudomonas aeruginosa PAO1 assessed as reduction in pyocyanin level at 162.5 uM after 16 hrs relative to control.
For test [24], the system named is Pseudomonas aeruginosa PAO1. Kind of test: Inhibition of quorum sensing las in Pseudomonas aeruginosa PAO1 assessed as reduction in protease level at 20 to 162.5 uM after 16 hrs. The settings on record: dose 20-162.5 µM.
Test [25] concerns Pseudomonas aeruginosa. Kind of test: Antibacterial activity against Pseudomonas aeruginosa PAO1 infected in Caenorhabditis elegans N2 strain assessed as increase in Caenorhabditis elegans survival rate at 162.5 uM after 120 hrs relative to control. It is filed as functional.
For test [26], the system named is Pseudomonas aeruginosa PAO1. Kind of test: Inhibition of quorum sensing system in Pseudomonas aeruginosa PAO1 assessed as reduction in swarming motility after 24 hrs. The following applies: dose 20-162.5 µM.
The test system of test [27] is Pseudomonas aeruginosa. Kind of test: Inhibition of biofilm formation in Pseudomonas aeruginosa PAO1 at 10 to 325 uM after 20 hrs by crystal violet assay relative to control. Type of test: functional. The following applies: dose 10-325 µM.
For test [28], the system named is Pseudomonas aeruginosa. Kind of test: Antibacterial activity against Pseudomonas aeruginosa PAO1 infected in Caenorhabditis elegans N2 strain assessed as increase in Caenorhabditis elegans survival rate at 162.5 uM up to 240 hrs relative to control. The settings on record: time hrs <=240. It is filed as functional.
Test [29] concerns Pseudomonas aeruginosa. In words: Antibacterial activity against Pseudomonas aeruginosa PAO1 biofilm cells assessed as reduction in microbial growth at 10 uM after 6 days. The following applies: time 6.0 day. Type of test: functional, organism-based.
The test system of test [30] is Pseudomonas aeruginosa. Kind of test: Inhibition of biofilm formation in Pseudomonas aeruginosa PAO1 at 162.5 uM after 20 hrs by crystal violet assay relative to control. Type of test: functional.
Test [31] relates to Pseudomonas aeruginosa PAO1. Kind of test: Inhibition of quorum sensing RhlAB in Pseudomonas aeruginosa PAO1 assessed as reduction in rhamnolipid level at 20 to 162.5 uM after 48 hrs by sulfuric acid-orcinol method. The following applies: dose 20-162.5 µM.

≈ marks a conversion by molar mass, not a printed value. Calls of active or inactive are those of the source. No cut-off for these calls is given here. Where only a bound is given, the exact number is not on record here.

For `O=C(CCCCCCSc1ccc(Cl)cc1)NN1CCOC1=O`, in test [1], the outcome was inactive.
Take `O=C(CCCSc1ccc(Cl)cc1)NN1CCOC1=O`: in test [1], the outcome was inactive. Further, the inhibition result in test [2] was “Active”. In addition, the IC50 in test [3] was 6.84 µM.
For `O=C(CCCOc1ccc(F)cc1F)NN1CCOC1=O`, in that order: “inactive”, “Active” and 19.6 µM.
For `O=C(CCCOc1ccccc1F)NN1CCOC1=O`, in that order: “inactive”, “Active” and 40.9 µM.
Take `NC[C@H]1O[C@H](O[C@H]2[C@H](O)[C@@H](O[C@H]3O[C@H](CO)[C@@H](O)[C@H](N)[C@H]3O)[C@H](N)C[C@@H]2N)[C@H](N)C[C@@H]1O` [TOBRAMYCIN]: the figures for the MIC in the test with Pseudomonas aeruginosa [4] and with Pseudomonas aeruginosa [5] were 8 µg/mL (≈ 17.1 µM) and 2 µg/mL (≈ 4.28 µM), respectively.
With `O=C(CCCCCCOc1ccc(Br)cc1)NN1CCOC1=O`, the outcome in [1] was inactive.
Regarding `O=C(CCCOc1cc(F)cc(F)c1)NN1CCOC1=O`, the outcome in test [1] was inactive. Further, the inhibition entry in [2] is “Active”. Moreover, the IC50 in test [3] stood at 61.6 µM.
As to `O=C(CCCOc1ccc(F)cc1)NN1CCOC1=O`, in test [1], the outcome was inactive. Further, the inhibition result in test [2] was “Active”. In test [3], the IC50 came to 11 µM.
Regarding `O=C(CCCCOc1ccc(F)cc1)NN1CCOC1=O`, the result in [1] was inactive. For the same molecule, in test [2], the inhibition result is “Active”. The IC50 in test [3] turned out to be 23.1 µM.
Regarding `O=C(CCCOc1ccc([N+](=O)[O-])cc1)NN1CCOC1=O`, the outcome in [1] was inactive. In addition, the inhibition entry in [2] was “Active”. The IC50 in [3] came out at 21.3 µM.
Take `O=C(CCCCCCOc1ccc(Cl)cc1)NN1CCOC1=O`: the result in test [1] was inactive.
In the case of `C[C@@H](O)[C@H]1C(=O)N2C(C(=O)O)=C(S[C@@H]3CN[C@H](C(=O)N(C)C)C3)[C@H](C)[C@H]12` [MEROPENEM], the outcome in the test on Pseudomonas aeruginosa [6] was Active. Also, the Ratio in the test with Pseudomonas aeruginosa [7] came to 32. For the same molecule, the MIC was determined as 8 µg/mL (≈ 20.9 µM) with Pseudomonas aeruginosa [4] and 0.25 µg/mL (≈ 0.652 µM) in the test with Pseudomonas aeruginosa [5]. Moreover, the Activity is 13.33% with Pseudomonas aeruginosa [8] and 15.67% with Pseudomonas aeruginosa [9].
As for `O=C(CCCCOc1cccc(F)c1)NN1CCOC1=O`, the outcome in test [1] was inactive. Further, the inhibition result in test [2] is “Active”. In test [3], the half-maximal inhibitory concentration (IC50) was 63.6 µM.
For the molecule `CCCCCCCCCC(=O)N[C@H]1CCOC1=O`, in [3], the IC50 was found to be 0.13 µM.
Consider `O=C(CCCOc1cccc(F)c1)NN1CCOC1=O`, for which the outcome in [1] was inactive. Further, the inhibition entry in test [2] was “Active”. In addition, the IC50 in test [3] came out at 15.5 µM.
Regarding `CC(C)(O/N=C(\C(=O)N[C@@H]1C(=O)N2C(C(=O)[O-])=C(C[n+]3ccccc3)CS[C@H]12)c1csc(N)n1)C(=O)O` [CEFTAZIDIME], the MIC with Pseudomonas aeruginosa [4] was 2 µg/mL (≈ 3.66 µM); with Pseudomonas aeruginosa [5], 1 µg/mL (≈ 1.83 µM).
For the molecule `O=C(O)c1cn(C2CC2)c2cc(N3CCNCC3)c(F)cc2c1=O` [CIPROFLOXACIN], the MIC in the test with Pseudomonas aeruginosa [5] was 0.08 µg/mL (≈ 0.241 µM).
Consider `O=C(CCCOc1cccc(Cl)c1)NN1CCOC1=O`, for which the outcome in test [1] was inactive. Besides, the inhibition result in test [2] is “Active”. In addition, in [3], the IC50 is 38.1 µM.
`NCC[C@H](O)C(=O)N[C@@H]1C[C@H](N)[C@@H](O[C@H]2O[C@H](CN)[C@@H](O)[C@H](O)[C@H]2O)[C@H](O)[C@H]1O[C@H]1O[C@H](CO)[C@@H](O)[C@H](N)[C@H]1O` [AMIKACIN]: the MIC was 16 µg/mL (≈ 27.3 µM) in the test on Pseudomonas aeruginosa [4] and 4 µg/mL (≈ 6.83 µM) in the test on Pseudomonas aeruginosa [5].
For `O=C(CCCOc1ccc(Br)cc1)NN1CCOC1=O`, the “fractional inhibitory concentration index (FICI)” value with Pseudomonas aeruginosa [10] was <0.5. The MIC in the test on Pseudomonas aeruginosa [11], in the test with Pseudomonas aeruginosa [12], with Pseudomonas aeruginosa [4] and in the test on Pseudomonas aeruginosa [5] was > 1110 µg/mL throughout. Moreover, the inhibition is 57.9% in test [13]; 16.2% in [16]; 14.9% in [18]; “Dose-dependent effect” in the test with Pseudomonas aeruginosa [21]; 22.5% in test [23]; “Dose-dependent effect” in test [26]. Further, the outcome in the test on Pseudomonas aeruginosa [14], with Pseudomonas aeruginosa [15] and with Pseudomonas aeruginosa [20] was Active. The inhibition result in test [17], in test [19], in [24], in [2] and in test [31] was “Active” in each case. Moreover, the outcome (in [1]; with Pseudomonas aeruginosa [29]) was inactive. Also, the “fold change (FC)” value in the test on Pseudomonas aeruginosa [22] is 8. The Activity with Pseudomonas aeruginosa [25] turned out to be 16%; with Pseudomonas aeruginosa [28] it was 18.33%. In the test on Pseudomonas aeruginosa [27], the “inhibition (INH)” value came to 17.67%. The molecule also came in with an inhibition at 162.5 µM in the test with Pseudomonas aeruginosa [30] of 40.4%. Also, the IC50 in test [3] is 3.69 µM.
As for `O=C(CCCCCOc1ccc(Cl)cc1)NN1CCOC1=O`, the result in test [1] was inactive. The inhibition result in test [2] was “Active”. Also, the IC50 in test [3] came out at 32.8 µM.
`O=C(CCCCCCOc1ccc([N+](=O)[O-])cc1)NN1CCOC1=O`: the result in test [1] was inactive.
Turning to `O=C(CCCCCCOc1ccc(Br)cc1Br)NN1CCOC1=O`, in test [1], the result was inactive.
As to `O=C(CCCCOc1ccc(Cl)cc1)NN1CCOC1=O`, the outcome in test [1] was inactive. In test [2], the inhibition result is “Active”. The IC50 in [3] worked out at 39.5 µM.
